Test results from the Kinase Knowledgebase extract (Sharma et al. 2016).

Target: MAPK14;MAPK11;MAPK12 (human) (UniProt Q16539)
Test: Inhibition of p38 Kinase Activity

Structure (SMILES) | IC50
CCCCN(C)c1nc(Nc2cc(C(N)=O)ccc2C)nc(N[C@H]2CCNC2)n1 | < 1000 nM
CNC(=O)c1ccc(C)c(Nc2nc(NCC(C)(C)C)nc(N[C@H]3CCNC3)n2)c1 | < 1000 nM
Cc1c(Cl)cc(C(N)=O)cc1Nc1nc(N[C@H]2CCNC2)nc(N(C)CC(C)(C)C)n1 | < 1000 nM
Cc1ccc(C(N)=O)cc1Nc1nc(N[C@@H]2CCN(C(C)CC(C)C)C2)nc(N(C)CC(C)(C)C)n1 (stereo not given in full) | < 1000 nM
CCC(C)N1CC[C@@H](Nc2nc(Nc3cc(C(N)=O)ccc3C)nc(N(C)CC(C)(C)C)n2)C1 (stereo not given in full) | < 1000 nM
CC(=O)NCc1ccc(C)c(Nc2nc(N[C@H]3CCNC3)nc(N(C)CC(C)(C)C)n2)c1 | < 1000 nM
Cc1ccc(C(N)=O)cc1Sc1nc(N(C)CC(C)(C)C)nc(N2CCCN(C)CC2)n1 | < 30000 nM
COC(=O)Nc1ccc(C)c(Nc2nc(N[C@H]3CCNC3)nc(N(C)CC(C)(C)C)n2)c1 | < 1000 nM
CONC(=O)c1ccc(C)c(Nc2nc(N[C@H]3CNC(=O)C3)nc(N(C)CC(C)(C)C)n2)c1 | < 1000 nM
CN(CCN(C)c1nc(NCc2ccc(F)cc2F)nc(-n2cnc3ccccc32)n1)C(=O)CCC(=O)O | < 10000 nM
Cc1ccc(C(N)=O)cc1Oc1nc(N[C@@H]2CCNC2)nc(N(C)CC(C)(C)C)n1 | < 30000 nM
Cc1ccccc1CN1CC[C@H](Nc2nc(Nc3cc(C(N)=O)ccc3C)nc(N(C)CC(C)C)n2)C1 | < 1000 nM
Cc1ccc(C(N)=O)cc1Nc1nc(NCc2cccc3ccccc23)nc(N[C@@H]2CCNC2)n1 | < 1000 nM
CCCc1nc(NCc2ccc(S(N)(=O)=O)cc2)nc(Nc2cccc(-c3ccccc3)c2)n1 | < 10000 nM
CONC(=O)c1ccc(C)c(Nc2nc(N(C)CC(C)(C)C)nc(N3CCCN(C)CC3)n2)c1 | < 1000 nM
CC1(C)[C@@H]2CC[C@@H](CNc3nc(NC4CCNCC4)nc(N4CCc5ccc([N+](=O)[O-])cc54)n3)[C@H]1C2 | < 1000 nM
Cc1ccc(C(N)=O)cc1Nc1nc(NC2CCCC2)nc(NC2CCN(Cc3ccccc3)C2)n1 (stereo not given) | < 1000 nM
COC[C@H]1C[C@@H](Nc2nc(Nc3cc(C(N)=O)ccc3C)nc(N(C)CC(C)(C)C)n2)CN1 | < 1000 nM
CCOC(=O)Nc1ccc(C)c(Nc2nc(N[C@H]3CCNC3)nc(N(C)CC(C)(C)C)n2)c1 | < 1000 nM
CCC(C)(C)c1nc(Nc2cc(C(N)=O)ccc2C)nc(N[C@H]2CCNC2)n1 | < 1000 nM
Cc1ccc(C(N)=O)cc1Nc1nc(N[C@@H]2CCCC[C@H]2N)nc(N(C)CC(C)C)n1 | < 1000 nM
CNC(=O)c1ccc(C)c(Sc2nc(NCc3ccccn3)nc(N(C)CC(C)(C)C)n2)c1 | < 30000 nM
Cc1ccc2c(c1)ncn2-c1nc(NCCOC(C)C)cc(N(C)C)n1 | < 10000 nM
Cc1ccc(C(N)=O)cc1Nc1nc(NCCCn2ccnc2)nc(NC2CCCC2)n1 | < 1000 nM
Cc1ccc(C(N)=O)cc1Nc1nc(NC[C@H]2CCCN2)nc(N(C)CC(C)C)n1 | < 1000 nM
Cc1ccc(C(=O)NCC(F)(F)F)cc1Nc1nc(N[C@H]2CCNC2)nc(N(C)CC(C)(C)C)n1 | < 1000 nM
Cc1ccc(C(N)=O)cc1Nc1nc(N[C@@H]2CCN(C(C)CC(C)C)C2)nc(N(C)CC(C)C)n1 (stereo not given in full) | < 1000 nM

Structure (SMILES) | IC50
Cc1ccc(C(N)=O)cc1Nc1nc(N[C@H]2CCN(Cc3ccccc3F)C2)nc(N(C)CC(C)C)n1 | < 1000 nM
Cc1ccc(COC(=O)C(F)(F)F)cc1Nc1nc(N[C@H]2CCNC2)nc(N(C)CC(C)C)n1 | < 1000 nM
Cc1ccc(C(=O)Nc2cccc(F)c2)cc1Nc1nc(N[C@H]2CCNC2)nc(N(C)CC(C)(C)C)n1 | < 1000 nM
Cc1ccc(C(N)=O)cc1Nc1nc(NCCc2ccc3c(c2)OCO3)nc(N[C@H]2CCNC2)n1 | < 1000 nM
CNC(=O)c1ccc(C)c(Nc2nc(N[C@H]3CCNC3)nc(N(C)CC3CCCC3)n2)c1 | < 1000 nM
CNC(=O)c1ccc(C)c(Nc2nc(N[C@H]3CCN(C(C)C)C3)nc(N(C)CC(C)(C)C)n2)c1 | < 1000 nM
CNC1CCN(c2cc(NCCOC(C)C)nc(-n3cnc4cc(C)ccc43)n2)C1 (stereo not given) | < 10000 nM
Cc1ccc(C(N)=O)cc1Nc1nc(N[C@H]2CCN(C3CCCCC3)C2)nc(N(C)CC(C)(C)C)n1 | < 1000 nM
Cc1ccc(C(N)=O)cc1Nc1nc(NC2CCN(C(C)C)CC2)nc(N(C)CC(C)(C)C)n1 | < 1000 nM
Cc1ccc(C(=O)Nc2c(Cl)cccc2Cl)cc1Nc1nc(N[C@H]2CCNC2)nc(N(C)CC(C)(C)C)n1 | < 1000 nM
Cc1ccc(C(N)=O)cc1Nc1nc(N[C@H]2CCN(C(C)c3ccccc3)C2)nc(N(C)CC(C)C)n1 (stereo not given in full) | < 1000 nM
Cc1ccc(CO)cc1Nc1nc(N[C@H]2CCNC2)nc(N(C)CC(C)(C)C)n1 | < 1000 nM
CC1(C)C2CCC(CNc3nc(N)nc(Nc4ccc(S(=O)(=O)N(C=O)c5ncccn5)cc4)n3)C1C2 (stereo not given) | < 10000 nM
Cc1cc(Cl)c(C(N)=O)cc1Nc1nc(N[C@H]2CCNC2)nc(N(C)CC(C)(C)C)n1 | < 1000 nM
CNC(=O)c1ccc(C)c(Oc2nc(NCc3ccccn3)nc(N(C)CC(C)(C)C)n2)c1 | < 30000 nM
CC(=O)Nc1ccc(C)c(Nc2nc(NCC(C)(C)C)nc(N[C@H]3CCNC3)n2)c1 | < 1000 nM
Cc1ccc(C(N)=O)cc1Nc1nc(NCC2CCCCC2)nc(N[C@@H]2CCNC2)n1 | < 1000 nM
Cc1ccc(C(N)=O)cc1Nc1nc(NCCc2ccc(F)cc2)nc(N[C@H]2CCNC2)n1 | < 1000 nM
NC(=O)c1ccc(N)c(Nc2nc(NC3CCNC3)nc(N3CCCC3)n2)c1 (stereo not given) | < 1000 nM
Cc1ccc(C(N)=O)cc1Nc1nc(N[C@H]2CCN(Cc3cccnc3)C2)nc(N(C)CC(C)C)n1 | < 1000 nM
Cc1ccc(COC(=O)C(F)(F)F)cc1Nc1nc(N[C@H]2CCNC2)nc(N(C)CC(C)(C)C)n1 | < 1000 nM
CONC(=O)c1ccc(C)c(Nc2nc(N(C)CC(C)(C)C)nc(N3CCCNCC3)n2)c1 | < 1000 nM
Cc1ccc(C(N)=O)cc1Nc1nc(N[C@H]2CCN(Cc3ccccc3O)C2)nc(N(C)CC(C)C)n1 | < 1000 nM
Cc1ccc(C)c(CN2CC[C@H](Nc3nc(Nc4cc(C(N)=O)ccc4C)nc(N(C)CC(C)C)n3)C2)c1 | < 1000 nM
CC(C)OCCNc1cc(N2CCNCC2)nc(-n2cnc3ccccc32)n1 | < 10000 nM
Cc1ccc(-c2nnc[nH]2)cc1Nc1nc(N[C@@H]2CCNC2)nc(N(C)CC(C)(C)C)n1 | < 1000 nM
CCNC(=O)c1ccc(C)c(Nc2nc(N[C@@H]3CCN(C4=CC(=O)CC(C)(C)C4)C3)nc(N(C)CC(C)(C)C)n2)c1 | < 1000 nM

Second part, the compound after the results:

IC50 | Structure (SMILES)
< 1000 nM | Cc1ccc(C(N)=O)cc1Nc1nc(O)nc(NCC(C)c2ccccc2)n1 (stereo not given)
< 10000 nM | CC(CNc1nc(Nc2ccc3ncsc3c2)nc(N(C)CCCN(C)S(=O)(=O)N(C)C)n1)c1ccccc1 (stereo not given)
< 10000 nM | CNCCN(C)c1nc(NC[C@@H](C)c2ccccc2)nc(-n2cnc3ccccc32)n1
< 10000 nM | CC(CNc1nc(Nc2ccc3ncsc3c2)nc(N(C)CCCN(C)C(=N)N)n1)c1ccccc1 (stereo not given)
< 10000 nM | CC(=O)N1CC2CC1CN2c1nc(NCC(C)c2ccccc2)nc(Nc2ccc3ncsc3c2)n1 (stereo not given)
< 10000 nM | CNCCN(C)c1nc(NC[C@H](C)c2ccccc2)nc(Nc2ccc3ncsc3c2)n1
< 1000 nM | Cc1ccc(C(N)=O)cc1Nc1nc(NCC(C)c2ccccc2)nc(N[C@@H]2CCNC2)n1 (stereo not given in full)
< 10000 nM | CC(C)NC(=O)N1CCN(c2nc(NCC(C)c3ccccc3)nc(Nc3ccc4ncsc4c3)n2)CC1 (stereo not given)
< 10000 nM | CN(CCN(C)c1nc(NCCc2ccccc2)nc(Nc2ccc3ncsc3c2)n1)C(=O)CCC(=O)O
< 10000 nM | CC(CNc1nc(Nc2ccc3ncsc3c2)nc(N2CC3CC2CN3C(=O)c2cccnc2)n1)c1ccccc1 (stereo not given)
< 1000 nM | Cc1ccc(C(=O)Nc2cccc(N(C)C)c2)cc1Nc1nc(N[C@H]2CCNC2)nc(N(C)CC(C)C)n1
< 10000 nM | CC(CNc1nc(Nc2ccc3ncsc3c2)nc(N(C)C)n1)c1ccc(Cl)cc1 (stereo not given)
< 10000 nM | CN(CC1CCC2CC1C2(C)C)c1nc(Nc2ccc3ncsc3c2)nc(N2CCNCC2)n1 (stereo not given)
< 1000 nM | Cc1ccc(C(=O)Nc2ccccc2)cc1Nc1nc(N[C@H]2CCNC2)nc(N(C)CC(C)C)n1
< 10000 nM | CNCCN(C)c1nc(NCc2ccc3c(c2)OCO3)nc(NCC(C)c2ccccc2)n1 (stereo not given)
< 10000 nM | COc1ccc(C(=O)N(C)CCCN(C)c2nc(NCC(C)c3ccccc3)nc(Nc3ccc4ncsc4c3)n2)cc1 (stereo not given)
< 1000 nM | CCc1ccc(CN2CC[C@@H](Nc3nc(Nc4cc(C(N)=O)ccc4C)nc(N(C)CC(C)C)n3)C2)cc1
< 10000 nM | CC(C)(Cc1ccccc1)Nc1nc(Nc2ccc3ncsc3c2)nc(N2CCNCC2)n1

IC50 | Structure (SMILES)
< 10000 nM | COC1CCCC(C(=O)N(C)CCCN(C)c2nc(NCC(C)c3ccccc3)nc(Nc3ccc4ncsc4c3)n2)C1 (stereo not given)
< 10000 nM | CCOC(=O)N1CCN(c2nc(NC[C@@H]3CC[C@H]4C[C@@H]3C4(C)C)nc(Nc3ccc4ncsc4c3)n2)CC1
< 1000 nM | Cc1ccc(C(N)=O)cc1Nc1nc(NC2CCN(Cc3ccc(C(F)(F)F)cc3)C2)nc(N(C)CC(C)C)n1 (stereo not given)
< 10000 nM | CN(C)c1nc(Nc2ccc3ncsc3c2)nc(NC(C)(C)Cc2ccccc2)n1
< 10000 nM | CC(CNc1nc(Nc2ccc3ncsc3c2)nc(N2CCN(C(=N)N)CC2)n1)c1ccccc1 (stereo not given)
< 10000 nM | CNc1nc(NCc2ccccc2OC)nc(Nc2ccc3ncsc3c2)n1
< 10000 nM | NC(=O)CNc1nc(NCCc2ccccc2)nc(Nc2ccc3ncsc3c2)n1
< 10000 nM | CNCCCN(C)c1nc(NC[C@@H]2CC[C@H]3C[C@@H]2C3(C)C)nc(Nc2ccc3ncsc3c2)n1
< 10000 nM | Nc1nc(NCCc2ccccc2)nc(Nc2ccc(S(=O)(=O)Nc3ncccn3)cc2)n1
< 10000 nM | CNC(=O)CCC(=O)N1CCN(c2nc(NCC3CC[C@H]4C[C@@H]3C4(C)C)nc(Nc3ccc4ncsc4c3)n2)CC1 (stereo not given in full)
< 10000 nM | Cc1ccccc1NC(=S)N(C)CCCN(C)c1nc(NCC(C)c2ccccc2)nc(Nc2ccc3ncsc3c2)n1 (stereo not given)
< 10000 nM | CC1(C)C2CCC(CNc3nc(Nc4ccc5ncsc5c4)cc(N4CCNCC4)n3)C1C2 (stereo not given)
< 1000 nM | Cc1ccc(C(N)=O)cc1Nc1nc(N[C@H]2CCN(C(C)c3ccncc3)C2)nc(N(C)CC(C)C)n1 (stereo not given in full)
< 10000 nM | CC1(C)[C@H]2CCC(COc3nc(O)nc(Nc4ccc5ncsc5c4)n3)[C@@H]1C2 (stereo not given in full)
< 10000 nM | CC1(C)C2CCC(CNc3nc(Nc4ccc5ncsc5c4)nc(N4CCC(C(N)=O)CC4)n3)C1C2 (stereo not given)
< 1000 nM | Cc1ccc(C(N)=O)cc1Nc1nc(N[C@H]2CCN(Cc3ccc(Cl)cc3)C2)nc(N(C)CC(C)C)n1
< 10000 nM | CC1(C)[C@H]2CCC(COc3nc(Cl)nc(Nc4ccc5ncsc5c4)n3)[C@@H]1C2 (stereo not given in full)
< 10000 nM | COCC(=O)N1CCN(c2nc(NCC(C)c3ccccc3)nc(Nc3ccc4ncsc4c3)n2)CC1 (stereo not given)
